Experimental data published in US20240336657A1, “G-ALPHA-S PEPTIDE INHIBITORS AND USES THEREOF” (The Regents of the University of California, priority 2021, published 2024).
Positions of bridges follow the written chain, without caps; N, C: chain ends. Non-standard residues stand in square brackets, D forms with d. Residues, ends and D or L forms follow the SMILES beside them.

What was measured:
Gαi1/Gβγ = molecular target: T1, Gαi1/Gβγ (Homo sapiens, UniProt P63096); assay: BRET2 based Gα Gβγ interaction assay in HEK293 cells (M2R, acetylcholine); format: cell-based; details: pretreated 25 μM, 16 hours, 100 nM acetylcholine
T1 construct: expressed in transfected cells; host or cells: HEK293 cells
T1 sequence (P63096 whole entry): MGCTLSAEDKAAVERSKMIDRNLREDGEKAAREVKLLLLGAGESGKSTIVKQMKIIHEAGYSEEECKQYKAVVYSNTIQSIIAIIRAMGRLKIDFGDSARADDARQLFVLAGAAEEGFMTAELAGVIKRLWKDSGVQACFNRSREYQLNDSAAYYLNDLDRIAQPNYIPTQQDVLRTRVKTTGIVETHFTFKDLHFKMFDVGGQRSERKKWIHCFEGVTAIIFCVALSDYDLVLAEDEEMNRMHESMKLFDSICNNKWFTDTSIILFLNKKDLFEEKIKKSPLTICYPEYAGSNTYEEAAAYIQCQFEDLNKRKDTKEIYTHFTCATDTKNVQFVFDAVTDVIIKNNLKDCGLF
Text: We next tested GD20-F10L in HEK 293 cells overexpressing both β2AR and Gαs/Gβγ. Rluc8 was inserted within a flexible loop region between the αB-αC helices of Gαs (FIG. 23J) and GFP2 was inserted at the N-terminus of Gγ2 to capture Gαβγ heterotrimer interaction. A decrease in the bioluminescence resonance energy transfer (BRET2) signal between labeled G protein subunits can detect Gαβγ dissociation (FIG. 21C) in live cells (Olsen et al., 2020). We examined Gαβγ trimer dissociation elicited by the GPCR agonist at various concentrations of cyclic peptides by monitoring the net BRET2 signal. In cells that were transiently transfected with a Gαs-coupled β2-adrenergic receptor (β2AR), GαsShort_Rluc8, […], and Gγ-GFP2, ISO application stimulated a basal net BRET response. […] This effect was GD20-F10L dose dependent (FIGS. 21D-21E). […] To assess the specificity of GD20-F10L at the G protein level, we tested it against the Gαi/Gβγ interaction. […]
8 hours after plating in 96-well assay plates, media was replaced with 100 μL of cyclic peptide dilutions in DMEM with 1% dialyzed FBS. […] Plates were then read in a TECAN Spark 20 M plate reader with 395 nm (RLuc8-coelenterazine 400a) and 510 nm (GFP2) emission filters, at integration times of 1 s per well. Plates were read serially six times, and measurements from the fourth read were used in all analyses. […]

[1] = test system: HeLa cells stably expressing HaloTag; assay: Chloroalkane penetration assay (CAPA); format: in vitro ADME, human; details: chloroalkane-tagged (ct) peptide; HeLa cells; ct-TAMRA chase
Text: We first tested the cell permeability of GD20, as peptide-based chemical probes often suffer from poor cell permeability. […] In order to quantitatively evaluate the cell permeability of GD20, we used a recently developed HaloTag-based assay known as a chloroalkane penetration assay (CAPA) (Figure S6I) (Peraro et al., 2018). HeLa cells stably expressing HaloTag localized to the mitochondrial outer membrane were pulsed with chloroalkane-tagged molecules (ct-molecule), washed, chased with chloroalkane-tagged TAMRA fluorophore (ct-TAMRA), and finally analyzed by flow cytometry. A lower ct-TAMRA fluorescent signal indicates competition from a higher cytosolic concentration of ct-molecule. The carboxyl terminus of GD20 (G15) was conjugated with a chloroalkane tag to make ct-GD20 (FIG. 23A).
The cell lines used for CAPA were HeLa cell lines, generated by Chenoweth and co-workers, that stably express HaloTag exclusively in the cytosol (Peraro et al., 2018). Cells were seeded in a 96-well plate the day before the experiment at a density of 4×10^4 cells per well. The day of the experiment the media was aspirated, and 100 μL of cyclic peptide dilutions in DMEM were added to the cells. Plate was incubated for 19.5 h at 37° C. with 5% CO2. […] The cells were then trypsinized, quenched with DMEM, resuspended in PBS, and analyzed using a benchtop flow cytometer (CytoFLEX, Beckman).

[2] = molecular target: T2, GTP- and GppNHp-bound Gαs Q227L mutant (Homo sapiens, UniProt P63092, Q227L); assay: Adenylyl cyclase activation assay with oncogenic mutant; format: biochemical
T2 construct: made in house; host or cells: Escherichia coli BL21(DE3)
T2 sequence (P63092 7-380 isoform P63092-2 Q213L limits assumed): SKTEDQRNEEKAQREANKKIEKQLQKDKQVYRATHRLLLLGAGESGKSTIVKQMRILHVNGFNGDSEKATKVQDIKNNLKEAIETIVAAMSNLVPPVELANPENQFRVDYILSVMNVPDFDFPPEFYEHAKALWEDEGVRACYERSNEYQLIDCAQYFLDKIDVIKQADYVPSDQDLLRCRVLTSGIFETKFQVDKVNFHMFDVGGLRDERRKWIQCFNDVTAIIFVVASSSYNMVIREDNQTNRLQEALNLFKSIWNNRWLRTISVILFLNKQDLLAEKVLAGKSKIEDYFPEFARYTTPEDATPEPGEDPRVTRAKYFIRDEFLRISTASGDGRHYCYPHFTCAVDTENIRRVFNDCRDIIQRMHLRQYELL
Text: Gαs is one of the most frequently mutated G proteins in human cancer. Hotspot mutations in Gαs (Q227) disrupt its GTPase activity, thereby locking Gαs in the GTP-bound active conformation (Zachary et al., 1990).

inhibition of Gαs Q227L mutant in the adenylyl cyclase activation assay [2]	SMILES	net BRET2 signal change between Gαi and Gβγ after acetylcholine (Gαi1/Gβγ)	cell permeability (CAPA) [1]
–	CC[C@H](C)[C@@H]1NC(=O)[C@H](CC(C)C)NC(=O)[C@@H](Cc2ccc(O)cc2)NC(=O)CSC[C@@H](C(=O)NCC(N)=O)NC(=O)[C@@H]2CCCN2C(=O)[C@H](CC(C)C)NC(=O)[C@H](CC(N)=O)NC(=O)[C@H](CC(C)C)NC(=O)[C@H](C)NC(=O)[C@H](Cc2c[nH]c3ccccc23)NC(=O)[C@H](CCC(N)=O)NC(=O)[C@H](CCCNC(=N)N)NC(=O)[C@H](Cc2ccccc2)NC(=O)[C@H]([C@@H](C)O)NC1=O [GD20-F10L] ({CH2CO}-[dY]LITFRQWALNLPCG-NH2; thioether N-14)	did not induce a net BRET2 signal change	significantly improved cell penetration
inhibited	CC[C@H](C)[C@@H]1NC(=O)[C@H](C)NC(=O)[C@H](Cc2ccc(O)cc2)NC(=O)[C@H](C(C)C)NC(=O)[C@H](CO)NC(=O)[C@H](CCC(=O)O)NC(=O)[C@H](Cc2ccccc2)NC(=O)[C@@H](Cc2ccc(O)cc2)NC(=O)CSC[C@@H](C(=O)NCC(N)=O)NC(=O)[C@H](CC(C)C)NC(=O)[C@H]([C@@H](C)O)NC(=O)CNC(=O)[C@H](Cc2c[nH]c3ccccc23)NC1=O [GN13] ({CH2CO}-[dY]FESVYAIWGTLCG-NH2; thioether N-13)	–	–
